Experimental data as given in patent US9682126B2, “Postprandial gastrokinetic agent” (ZERIA PHARMACEUTICAL CO., LTD., priority 2013, dated 2017).

Key:
subjects = settings: motilin continuously administered intravenously to fasting subjects; cited from earlier work
Suncus murinus [1] = assay: Postprandial gastric motility, force transducer on stomach, motility index MI (Example 1); type: in vivo; settings: motilin 300 ng/kg iv after 10-min feed intake
Procedure: Effects of administration of each of ghrelin and motilin and co-administration of ghrelin and motilin on postprandial gastric motility in Suncus murinus were studied. Each of Suncus motilin (Scrum Inc., Tokyo, Japan) and human ghrelin (Asubio Pharma Co., Ltd., Hyogo, Japan) was dissolved in phosphate buffered saline (PBS) containing 0.1% bovine serum albumin. Suncus murinus (male, outbred KAT strain, 8 to 9 weeks old, 73 to 90 g) was used for the experiment. Each animal was bred in a plastic cage provided with an empty can as a nest box under the following conditions: temperature at 23±2° C., illumination between 8:00 and 20:00, and free intake of commercial trout feed (SP, Nippon Formula Feed Mfg Co., Ltd., Yokohama, Japan). After 3 hours of fasting, Suncus murinus was anesthetized by an intraperitoneal injection of pentobarbital sodium (50 mg/kg). Through a midline incision, the stomach was exposed outside the body, and a force transducer was fixed via suture in the circular muscle direction of the body of stomach. […] Amplified analog signals were converted into digital signals by an analog-to-digital converter (ADC-20, Pico Technology Ltd, St Neots, UK), and the digital signals were recorded on a computer. […] Gastric motility was quantitated using a motility index (MI). A motility index (MI) based on a drug was calculated using the following equation. […]

Suncus murinus [2] = assay: Gastric motility in postprandial period, sham-operated vs vagotomized (Example 2); type: in vivo
Procedure: Each of Suncus motilin (Scrum Inc., Tokyo, Japan) and human ghrelin (Asubio Pharma Co., Ltd., Hyogo, Japan) were dissolved in PBS containing 0.1% bovine serum albumin. Suncus murinus (male, outbred KAT strain, 7 to 15 weeks old, 60 to 100 g) was used for the experiment. Each animal was bred in a plastic cage provided with an empty can as a nest box under the following conditions: temperature at 23±2° C., illumination between 8:00 and 20:00, and free intake of commercial trout feed (SP, Nippon Formula Feed Mfg Co., Ltd., Yokohama, Japan). After 3 hours of fasting, Suncus murinus was anesthetized by an intraperitoneal injection of pentobarbital sodium (50 mg/kg). Through a midline incision, the stomach was exposed outside the body, and a force transducer was fixed via suture in the circular muscle direction of the body of stomach. The wire extending from the force transducer was inserted through the abdominal wall, passed under the skin, and exposed at the back of the neck. Thereafter, truncal vagotomy was performed. A lower portion of the esophagus was exposed, both branches of the vagus nerve were isolated, and about 3 mm of the vagus nerve was excised above the hepatic branch and the celiac branch. For sham-operated Suncus murinus, the vagus nerve was exposed, but not excised. An intravenous catheter was inserted in the right jugular, and extracorporeally fixed to the back. The catheter was filled with heparinized saline (100 units/mL) to prevent clotting. From 2 days after the operation, the gastric motility was recorded. 1 g of feed was given to the Suncus murinus during phase I to observe postprandial contractions. Motilin was continuously injected at 50 ng/kg/min over 10 minutes 20 minutes after completion of intake of feed. Amplified analog signals were converted into digital signals by an analog-to-digital converter (ADC-20, Pico Technology Ltd, St Neots, UK), and the digital signals were recorded on a computer. […] Gastric motility was quantitated using a motility index (MI). A motility index (MI) based on a drug was calculated using the following equation. […]

CC[C@H](C)[C@H](NC(=O)[C@@H]1CCCN1C(=O)[C@@H](NC(=O)[C@@H](N)Cc1ccccc1)C(C)C)C(=O)N[C@@H](Cc1ccccc1)C(=O)N[C@H](C(=O)N[C@@H](Cc1ccc(O)cc1)C(=O)NCC(=O)N[C@@H](CCC(=O)O)C(=O)N[C@@H](CC(C)C)C(=O)N[C@@H](CCC(N)=O)C(=O)N[C@@H](CCCNC(=N)N)C(=O)N[C@@H](CCSC)C(=O)N[C@@H](CCC(N)=O)C(=O)N[C@@H](CCC(=O)O)C(=O)N[C@@H](CCCCN)C(=O)N[C@@H](CCC(=O)O)C(=O)N[C@@H](CCCNC(=N)N)C(=O)N[C@@H](CC(N)=O)C(=O)N[C@@H](CCCCN)C(=O)NCC(=O)N[C@@H](CCC(N)=O)C(=O)O)[C@@H](C)O [motilin]
gastric emptying (subjects): accelerate gastric emptying | contractions of the body of the stomach (Suncus murinus [1]): did not induce contractions of the body of the stomach | MI of postprandial motilin-induced contractions, vagotomized compared with sham-operated (Suncus murinus [2]; motilin 50 ng/kg/min after intake of feed): significantly higher | phase III-like contractions (Suncus murinus [2]; sham-operated, after intake of feed, motilin 50 ng/kg/min, 10-minute administration): did not induce phase III-like contractions | phase III contractions (Suncus murinus [2]; vagotomized, after intake of feed, motilin 50 ng/kg/min, 10-minute administration): induced strong phase III contractions
